Here are results for three molecules from patent US11542261B2, “Substituted Imidazo[1,2-a]-pyridines as IRAK 1/4 and FLT3 inhibitors” (CHILDREN'S HOSPITAL MEDICAL CENTER, priority 2016, dated 2023).

Some results are limits rather than exact numbers.

One data set concerns MLL-AF9/FLT3-ITD cells. Type of data set: cell-based. Conditions: Homo sapiens, MLL-AF9, Table 10.
The next data set deals with MLL-AF9 NRas cells. Nature of the data set: NRAS IC50 (MLL-AF9 NRas cells). Conditions: Table 10. Format: cell-based.
The subject of a further data set is FLT3 phosphorylation. In words: Immunoblot of phosphorylated FLT3 in MV4;11 cells. Type of data set: cell-based, human. Conditions: 50 nM, 24 hours.
Data set [1] concerns IRAK4 phosphorylation. In words: Immunoblot of P-IRAK4 in FLT3-ITD AML cells. As to conditions: 50 nM. Type of data set: cell-based, human. (In general: In western blotting, separated proteins are transferred to a membrane and probed.)
The subject of data set [2] is THP-1 cells. Nature of the data set: Inhibitory activity against THP-1 cells. Type of data set: cell-based. Conditions: THP-1 cells (FLT3 wild type AML); data not shown.
The next data set concerns the target ABL (Homo sapiens (Human), UniProt P00519). Nature of the data set: KiNativ in situ kinase profiling in MV4:11 cell lysates. Type of data set: biochemical. On the procedure:
(§1) FIG. 18A depicts the labeling site key. FIG. 18B depicts estimated IC50 values. FIG. 18C depicts the full IC50 list for the various kinases. This is an in situ kinase profiling assay; details and methodology are available at www kinativ com. The assay was performed in lysates of MV-4-11 cells which were pretreated for 15 minutes with the inhibitor before the ATP probe was added.
(§2) The KiNativ® assay is an in situ kinase profiling assay; details and methodology are available at www kinativ com. This assay uses the form of the enzyme that is found in actual cells. The assay is run either in cell lysates or in whole cells, with the drug of interest added either to the cell lysates (i.e. cells that have been popped open) or to the outside of the cell in a whole cell assay prior to making the cell lysates. The whole cell assay is optimal because the drug must pass through the cell membrane to get to the cytoplasm where the kinase resides if the kinase is a cytosolic kinase, as is the case for IRAK, or the location of the kinase domain for the FLT3 receptor kinase domain. In the case of FIG. 18, the KiNativ assay was run on cell lysates from the MV4:11 cells. The MV4:11 cells are a FLT3-ITD positive cell line.
(§3) FLT3 is not captured by the KiNativ technology. The KiNativ assay is done in the actual cellular milieu, where the kinase domains are in their more natural states and subject to more native regulatory elements (e.g. other protein domains within the kinase itself that might not be present in the Reaction Biology assay, and which might otherwise obscure access to the active site by our ligand).

For the next data set, the target named is CDK7 (Homo sapiens (Human), UniProt P50613). The data set is described as above. Format: biochemical. The procedure: as §1, §2, §3
Another data set has as its target GAK (Homo sapiens (Human), UniProt O14976). The description is as above. Type of data set: biochemical. On the procedure: as §1, §2, §3
Another data set concerns the target HGK (Homo sapiens (Human), UniProt O95819). The description is as above. Type of data set: biochemical. On the procedure: as §1, §2, §3
The target of another data set is IRAK1 (Homo sapiens (Human), UniProt P51617). The data set is described as above. Format: biochemical. The procedure: as §1, §2, §3
Another data set has as its target LYN (Homo sapiens (Human), UniProt P07948). The description is as above. Type of data set: biochemical. The procedure: as §1, §2, §3
The target of a further data set is MINK (Homo sapiens (Human), UniProt Q8N4C8). The data set is described as above. Type of data set: biochemical. The procedure: as §1, §2, §3
The target in the next data set is PCTAIRE1 (Homo sapiens (Human), UniProt Q00536). The description is as above. Type of data set: biochemical. On the procedure:
as §1, §2, §3

For the next data set, the target named is PCTAIRE2 (Homo sapiens (Human), UniProt Q00537). The description is as above. Format: biochemical. On the procedure: as §1, §2, §3
The target in another data set is PCTAIRE3 (Homo sapiens (Human), UniProt Q07002). The description is as above. Format: biochemical. On the procedure:
as §1, §2, §3

The next data set has as its target TNIK (Homo sapiens (Human), UniProt Q9UKE5). The data set is described as above. Format: biochemical. On the procedure:
as §1, §2, §3

The test system of data set [3] is IRAK4 phosphorylation. In words: Immunoblot of phosphorylated IRAK4 in MDSL cells. Type of data set: cell-based, human. Conditions: 24 hours.
Another data set has as its system MDSL cells. In words: MDSL cell growth, Cell-titer glow, 72 hours. Type of data set: cell-based, human. On the procedure: In a 96-well culture plate (Corning Inc. Costar), 25000 cells were plated in 200 μL media per well. In triplicate, 2 μL of the indicated inhibitor (100× in DMSO) was added to each well and cells treated with 2 μL DMSO alone was used as the control. Treated cells were incubated at 37° C. for 72 hours. In a white 96-well assay plate (Corning Inc. Costar), 100 μL of the treated cells were transferred and brought to room temperature. An equal volume of CellTiter-Glo Reagent at room temperature was added to the cells and the plate was rocked for 2 minutes, followed by 10 minutes of rest. Analysis was performed using GloMax 96 microplate Luminometer (Promega) with GloMax Software.
FIG. 10—Methods: (FIG. 10A) Colony formation of MDSL cells was determined in methylcellulose supplemented with 1 μM or 10 μM of the indicated compounds. Colony formation was determined after 10 days.

For data set [4], the system named is THP-1 cells. Nature of the data set: Synergy of I-24/1481 with venetoclax in THP-1 cells (MTS). Conditions: combined with an IC50 concentration of I-24/1481. Format: cell-based. On the procedure: Data were analyzed by Prism v 8. […] FIG. 14C depicts the relevant heat maps; data in the upper heat map indicates the Bliss Scores, and the lower heat map indicates the individual data points for the various dose response curves. Methods: Day 0: Cell Line Plating in growth media recommended by ATCC using Tecan Fluent in 96 well plate (Eppendorf 0030730011); Day 1: Drug Addition. Venetoclax obtained from Selleckchem (S8048); Day 1→4: Incubate with Drug for 72 Hrs at 37 C, 5% CO2; Day 5: Add 20% original volume MTS (Promega G5440) and incubate for 4 Hrs; Add 25% original volume 10% SDS (Invitrogen 24730-020) to lyse cells and stop conversion of MTS to formazan. Read out is colorimetric at 490 nm using a BioTek Synergy Neo Plate Reader.

In another data set the test system is Kasumi-1 cells. Nature of the data set: Synergy of I-24/1481 with venetoclax in Kasumi-1 cells (MTS). Type of data set: cell-based.

In the case of `COc1cc2ncc(-c3cccc(NC4CCNC4)n3)n2cc1-c1cn[nH]c1` (stereo not drawn) [Compound I-20, 6-(7-methoxy-6-(1H-pyrazol-4-yl)imidazo[1,2-a]pyridin-3-yl)-N-(pyrrolidin-3-yl)pyridin-2-amine], the IC50 in the data set with MLL-AF9/FLT3-ITD cells turned out to be 40 nM; in the data set on MLL-AF9 NRas cells, 33200 nM. Further, in the data set on FLT3 phosphorylation, the FLT3 phosphorylation entry is reported as “inhibited FLT3 phosphorylation comparably to AC220”. In the data set with IRAK4 phosphorylation [1], the “compensatory phosphorylation of IRAK4” value is on record as “did not result in compensatory phosphorylation of IRAK4”.
Consider `COc1cc2ncc(-c3cccc(NC4CCNC4)n3)n2cc1-c1cnn(C)c1` (stereo not drawn) [Compound I-24, 6-(7-methoxy-6-(1-methyl-1H-pyrazol-4-yl)imidazo[1,2-a]pyridin-3-yl)-N-(pyrrolidin-3-yl)pyridin-2-amine], for which the “concentration without any inhibitory activity” value with THP-1 cells [2] is > 10 µM. The IC50 at ABL, against CDK7, against GAK, at HGK, at IRAK1 and against LYN was < 250 nM in each case. Moreover, the IC50 against MINK, on PCTAIRE1, on PCTAIRE2, on PCTAIRE3 and at TNIK was < 250 nM each time. In the data set on FLT3 phosphorylation, the FLT3 phosphorylation entry is listed as “inhibited FLT3 phosphorylation comparably to AC220”. Also, in the data set with IRAK4 phosphorylation [3], the IRAK4 phosphorylation result is reported as “effectively inhibited pIRAK4”. In the data set on MDSL cells, the MDSL growth entry is on record as “increased ability to inhibit MDSL growth compared to IRAK-Inh”.
For `CC1(C)CCC(CN2CCN(c3ccc(C(=O)NS(=O)(=O)c4ccc(NCC5CCOCC5)c([N+](=O)[O-])c4)c(Oc4cnc5[nH]ccc5c4)c3)CC2)=C(c2ccc(Cl)cc2)C1` [Venetoclax, venetoclax], the “shift of venetoclax IC50” value with THP-1 cells [4] is recorded as 15,000 times. Further, the IC50 turned out to be 3600 nM in the data set on Kasumi-1 cells (Homo sapiens, denominator of the dose ratio, read-out: concentration giving the IC50 response when administered alone) and 3160 nM with MLL-AF9 FLT3-ITD cells (read-out: IC50 alone, single agent). In addition, the “fold shift of Venetoclax IC50” value was ~15 fold with Kasumi-1 cells (combined with a minimally active concentration of I-24/1481) and 50 fold in the data set on MLL-AF9 FLT3-ITD cells (combined with 0.2 nM 1481).
